These are literature values, as cited in paper PMC4195943, “A novel small-molecule MRCK inhibitor blocks cancer cell invasion” (Cell Communication and Signaling : CCS, 2014).

In one series the target is Protein Kinase C. Set-up: method as in PMID 2244923. The settings on record: read-out: in vitro IC50, Protein Kinase C; cited from earlier work.
A further series has as its target MRCKα (Homo sapiens, UniProt Q5VT25). On the set-up: method as in PMID 21457715. The settings on record: read-out: in vitro IC50, MRCKα; cited from earlier work.

Sequence of MRCKα (Q5VT25 whole entry): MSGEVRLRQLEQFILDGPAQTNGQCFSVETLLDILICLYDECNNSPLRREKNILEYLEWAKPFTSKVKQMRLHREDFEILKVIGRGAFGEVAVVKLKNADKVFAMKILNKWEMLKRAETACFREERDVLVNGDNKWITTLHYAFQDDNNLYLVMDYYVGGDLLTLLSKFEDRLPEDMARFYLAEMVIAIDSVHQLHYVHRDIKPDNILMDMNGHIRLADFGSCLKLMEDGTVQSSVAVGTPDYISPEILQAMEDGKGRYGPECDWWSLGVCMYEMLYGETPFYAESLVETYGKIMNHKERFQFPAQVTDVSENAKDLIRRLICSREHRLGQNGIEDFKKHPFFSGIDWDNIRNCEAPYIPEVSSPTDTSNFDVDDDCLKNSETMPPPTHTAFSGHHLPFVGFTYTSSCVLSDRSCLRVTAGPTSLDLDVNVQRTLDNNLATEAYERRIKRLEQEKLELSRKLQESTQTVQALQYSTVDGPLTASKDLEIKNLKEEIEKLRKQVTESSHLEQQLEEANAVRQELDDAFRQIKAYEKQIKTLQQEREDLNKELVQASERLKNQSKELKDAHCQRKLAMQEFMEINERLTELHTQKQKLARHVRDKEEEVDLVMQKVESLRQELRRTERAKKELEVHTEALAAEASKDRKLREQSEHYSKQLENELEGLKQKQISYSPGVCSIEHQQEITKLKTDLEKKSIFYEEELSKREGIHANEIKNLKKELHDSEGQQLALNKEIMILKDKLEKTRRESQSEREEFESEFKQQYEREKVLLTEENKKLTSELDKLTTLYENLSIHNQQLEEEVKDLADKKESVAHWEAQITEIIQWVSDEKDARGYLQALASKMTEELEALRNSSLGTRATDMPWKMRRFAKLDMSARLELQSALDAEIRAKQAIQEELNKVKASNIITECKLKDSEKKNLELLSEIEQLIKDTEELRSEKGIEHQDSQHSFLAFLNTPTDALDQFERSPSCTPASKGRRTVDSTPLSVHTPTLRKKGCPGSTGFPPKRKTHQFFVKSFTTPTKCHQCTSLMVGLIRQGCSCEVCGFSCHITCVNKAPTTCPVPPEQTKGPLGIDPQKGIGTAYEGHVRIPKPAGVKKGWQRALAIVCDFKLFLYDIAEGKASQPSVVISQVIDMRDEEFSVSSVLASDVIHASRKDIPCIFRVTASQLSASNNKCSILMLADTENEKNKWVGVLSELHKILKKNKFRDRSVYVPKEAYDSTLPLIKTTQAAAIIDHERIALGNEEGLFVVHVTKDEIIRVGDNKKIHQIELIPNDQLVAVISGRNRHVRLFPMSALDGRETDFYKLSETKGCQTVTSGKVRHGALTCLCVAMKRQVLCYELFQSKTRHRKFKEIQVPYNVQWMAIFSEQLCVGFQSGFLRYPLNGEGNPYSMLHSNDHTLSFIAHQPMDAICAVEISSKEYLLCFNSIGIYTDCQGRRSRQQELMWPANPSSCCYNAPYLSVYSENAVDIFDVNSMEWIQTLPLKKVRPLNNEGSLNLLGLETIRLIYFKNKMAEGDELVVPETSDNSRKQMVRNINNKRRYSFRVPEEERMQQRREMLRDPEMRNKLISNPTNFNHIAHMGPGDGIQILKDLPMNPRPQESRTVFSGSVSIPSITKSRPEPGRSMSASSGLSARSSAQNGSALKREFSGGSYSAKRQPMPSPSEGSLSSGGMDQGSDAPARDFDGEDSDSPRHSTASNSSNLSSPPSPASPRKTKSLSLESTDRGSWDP

Usually IC50 stands for the midpoint of a concentration-inhibition curve. Turning to `COc1ccc2c(c[n+](C)c3c4cc5c(cc4ccc23)OCO5)c1OC` [Chelerythrine], the IC50 at Protein Kinase C is 660 nM; on MRCKα, 1770 nM.
